Consider 17 molecules from patent US8288142B2, “Hyaluronidase and method of use thereof” (priority 2007, dated 2012).

Assay [1] has as its system hyaluronidase derived from Stm. Hyalurolyticus. As to conditions: 10^−3-10^−4 M; Ohya 1970; cited from earlier work.
A further assay concerns microbial hyaluronidase. The format is biochemical, Streptomyces actinocidus. As to conditions: for effect on activity of microbial hyaluronidase: 10^−3-10^−4 M; for inhibition of hyaluronidase activity / effect on hyaluronidase: 10^−2 M; for inhibition of activity of microbial hyaluronidase: 10^−3 M.

Like-named read-outs stand apart in the source and are kept apart here.

For the molecule `[Hg+2]` [Hg^2+], the “effect on hyaluronidase derived from Stm. Hyalurolyticus” value (“effect on hyaluronidase derived” below) in assay [1] is listed as “inhibit”.
With `[Cl][Mn][Cl]` [MnCl2], the “effect on hyaluronidase derived” value in assay [1] was “inhibit”. In the assay with microbial hyaluronidase, the “effect on activity of microbial hyaluronidase” value is “did not affect”. The “Hyaluronidase activity (%)” value with microbial hyaluronidase (reagent or salt 10^−2 M), in the assay on microbial hyaluronidase (reagent or salt 10^−3 M) and with microbial hyaluronidase (reagent or salt 10^−4 M) was 100% each time.
Regarding `II` [I2], the “Hyaluronidase activity (%)” value is reported as 0% with microbial hyaluronidase (reagent or salt 10^−2 M) and 12% with microbial hyaluronidase (reagent or salt 10^−3 M).
Regarding `O=C(O)CN(CCN(CC(=O)O)CC(=O)O)CC(=O)O` [EDTA], the “Hyaluronidase activity (%)” value in the assay with microbial hyaluronidase (reagent or salt 10^−2 M) is reported as 95%; in the assay on microbial hyaluronidase (reagent or salt 10^−3 M), 100%; in the assay on microbial hyaluronidase (reagent or salt 10^−4 M), 100%.
Consider `[Ca+2].[Cl-].[Cl-]` [CaCl2], for which the “Hyaluronidase activity (%)” value with microbial hyaluronidase (reagent or salt 10^−2 M), in the assay with microbial hyaluronidase (reagent or salt 10^−3 M) and in the assay with microbial hyaluronidase (reagent or salt 10^−4 M) was 100% throughout.
As to `[N-]=[N+]=[N-].[Na+]` [Na3N], the “Hyaluronidase activity (%)” value in the assay on microbial hyaluronidase (reagent or salt 10^−2 M), with microbial hyaluronidase (reagent or salt 10^−3 M) and in the assay on microbial hyaluronidase (reagent or salt 10^−4 M) was 100% in each case.
Regarding `[Cl-].[K+]` [KCl], the “Hyaluronidase activity (%)” value with microbial hyaluronidase (reagent or salt 10^−2 M), in the assay with microbial hyaluronidase (reagent or salt 10^−3 M) and in the assay with microbial hyaluronidase (reagent or salt 10^−4 M) was 100% in each case.
Consider `[Cl][Fe]([Cl])[Cl]` [FeCl3], for which the “inhibition of hyaluronidase activity” value in the assay with microbial hyaluronidase is listed as 65%. Besides, in the assay on microbial hyaluronidase, the “inhibition of activity of microbial hyaluronidase” value was 25%. The “Hyaluronidase activity (%)” value is 35% in the assay with microbial hyaluronidase (reagent or salt 10^−2 M), 85% in the assay on microbial hyaluronidase (reagent or salt 10^−3 M) and 100% with microbial hyaluronidase (reagent or salt 10^−4 M).
As for `O=C(O)c1cc[c]([Hg][Cl])cc1` [para-Chloromercury-benzoate], the “effect on hyaluronidase derived” value in assay [1] is given as “inhibit”. Further, the “effect on hyaluronidase” value in the assay with microbial hyaluronidase is “partially inhibited”. The “effect on activity of microbial hyaluronidase” value in the assay on microbial hyaluronidase is on record as “did not affect”. Moreover, the entries for the “Hyaluronidase activity (%)” value with microbial hyaluronidase (reagent or salt 10^−2 M), with microbial hyaluronidase (reagent or salt 10^−3 M) and in the assay on microbial hyaluronidase (reagent or salt 10^−4 M) were 80%, 100% and 100%, respectively.
As for `OCCS` [beta-Mercaptoethanol], the “effect on hyaluronidase” value in the assay with microbial hyaluronidase is given as “completely inhibited”. The “Hyaluronidase activity (%)” value with microbial hyaluronidase (reagent or salt 10^−2 M) came out at 0%; with microbial hyaluronidase (reagent or salt 10^−3 M) it was 65%; in the assay with microbial hyaluronidase (reagent or salt 10^−4 M), 100%.
Take `O=S(=O)([O-])[O-].[Li+].[Li+]` [LiSO4]: the “Hyaluronidase activity (%)” value with microbial hyaluronidase (reagent or salt 10^−2 M), in the assay on microbial hyaluronidase (reagent or salt 10^−3 M) and with microbial hyaluronidase (reagent or salt 10^−4 M) was 100% throughout.
For the molecule `O=[N+]([O-])[O-].[Ag+]` [AgNO3], the “Hyaluronidase activity (%)” value with microbial hyaluronidase (reagent or salt 10^−2 M), in the assay on microbial hyaluronidase (reagent or salt 10^−3 M) and in the assay on microbial hyaluronidase (reagent or salt 10^−4 M) was 100% throughout.
Take `[Cl-].[Na+]` [NaCl]: the “Hyaluronidase activity (%)” value in the assay with microbial hyaluronidase (reagent or salt 10^−2 M), in the assay with microbial hyaluronidase (reagent or salt 10^−3 M) and in the assay with microbial hyaluronidase (reagent or salt 10^−4 M) was 100% in each case.
For `O=S(=O)([O-])[O-].[Fe+2]` [FeSO4], the “Hyaluronidase activity (%)” value with microbial hyaluronidase (reagent or salt 10^−2 M), in the assay with microbial hyaluronidase (reagent or salt 10^−3 M) and in the assay on microbial hyaluronidase (reagent or salt 10^−4 M) was 100% throughout.
On to `O=S(=O)([O-])[O-].[Cu+2]` [CuSO4], for which the “inhibition of hyaluronidase activity” value in the assay on microbial hyaluronidase was 56%. Besides, the “inhibition of activity of microbial hyaluronidase” value in the assay on microbial hyaluronidase was found to be 25%. The “Hyaluronidase activity (%)” value is recorded as 44% in the assay with microbial hyaluronidase (reagent or salt 10^−2 M), 85% in the assay on microbial hyaluronidase (reagent or salt 10^−3 M) and 100% with microbial hyaluronidase (reagent or salt 10^−4 M).
As for `O=S(=O)([O-])[O-].[Zn+2]` [ZnSO4], the “Hyaluronidase activity (%)” value in the assay with microbial hyaluronidase (reagent or salt 10^−2 M), in the assay with microbial hyaluronidase (reagent or salt 10^−3 M) and in the assay with microbial hyaluronidase (reagent or salt 10^−4 M) was 100% in each case.
Consider `[Cl-].[Cl-].[Co+2]` [CoCl2], for which the “Hyaluronidase activity (%)” value in the assay on microbial hyaluronidase was determined as 100%.
